Molecules are shown by their SMILES. Like-named read-outs stand apart in the source and are kept apart here.

What all share (type): in vivo
For experiment [1], the system named is weeds and/or crops. Briefly: Post-emergence biological efficacy (Table 4). The settings on record: 312 h, 1000 g/ha, evaluated after 13 days. The method, boiled down: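 Weeds and crops were grown 14 days in a glasshouse, then sprayed post-emergence with compound formulated in acetone/F50 and diluted in 0.2% Genapol X080 to the final dose. Damage was scored after 13 days on a 0–100 scale, where 100 is total damage.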

Experiment [2] concerns ZEAMX. The experiment can be described thus: Pre-emergence biological efficacy (Table 3). The note with it: 312 h, 1000 g/ha, after 13 days, read-out: evaluation (100=total damage to plant; 0=no damage to plant). The method, boiled down: (§1)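 After sowing in pots and one day of glasshouse cultivation, spray is applied at the desired dose from a 50 g/l acetone/AMA stock diluted in 0.2% Genapol X080. Plants grow at 24/18 °C, 15 h light, 50% humidity, and damage is rated 0–100 after 13 days.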

Experiment [3] concerns AMAPA. Briefly: Pre-emergence biological efficacy (Table 3). The note with it: 312 h, 1000 g/ha, after 13 days, read-out: evaluation (100=total damage to plant; 0=no damage to plant). The method, boiled down: as §1
The test system of experiment [4] is AMARE. The experiment can be described thus: Pre-emergence biological efficacy (Table 3). The settings on record: Amaranthus retroflexus, 312 h, 1000 g/ha, after 13 days, read-out: evaluation (100=total damage to plant; 0=no damage to plant). The method, boiled down: as §1
Experiment [5] deals with IPOHE. The experiment can be described thus: Pre-emergence biological efficacy (Table 3). The settings on record: Ipomoea hederacea, 312 h, 1000 g/ha, after 13 days, read-out: evaluation (100=total damage to plant; 0=no damage to plant). The method, boiled down: as §1
Experiment [6] deals with ECHCG. Briefly: Pre-emergence biological efficacy (Table 3). The note with it: Echinochloa crus-galli, 312 h, 1000 g/ha, after 13 days, read-out: evaluation (100=total damage to plant; 0=no damage to plant). Summed up:
as §1

For experiment [7], the system named is SETFA. Briefly: Pre-emergence biological efficacy (Table 3). The settings on record: Setaria faberi, 312 h, 1000 g/ha, after 13 days, read-out: evaluation (100=total damage to plant; 0=no damage to plant). The method, boiled down:
as §1

Where [8] appears, read: AMAPA, read-out: damage to plant AMAPA (100=total damage; 0=no damage).
[9] abbreviates: ZEAMX, read-out: damage to plant ZEAMX (100=total damage; 0=no damage).
Setting [10] is: Amaranthus retroflexus, AMARE, read-out: damage to plant AMARE (100=total damage; 0=no damage).
The mark [11] stands for this setting: Echinochloa crus-galli, ECHCG, read-out: damage to plant ECHCG (100=total damage; 0=no damage).
[12] abbreviates: Ipomoea hederacea, IPOHE, read-out: damage to plant IPOHE (100=total damage; 0=no damage).
[13] abbreviates: Setaria faberi, SETFA, read-out: damage to plant SETFA (100=total damage; 0=no damage).

In the case of `COc1ccc(C(F)(F)C(=O)O)c([N+](=O)[O-])c1F` [Compound 1-461, 2,2-Difluoro-2-(3-fluoro-4-methoxy-2-nitro-phenyl)acetic acid], the pest or weed control at 1000 g/ha in experiment [1] (setting [8]) is 80%; in experiment [1] (setting [9]) it was 0%; in experiment [1] (setting [10]), 80%; in experiment [1] (setting [11]), 10%; in experiment [1] (setting [12]) it was 20%; in experiment [1] (setting [13]) it was 30%. For the same compound, the pest or weed control at 1000 g/ha in experiment [3] stood at 30%; in experiment [4] it was 40%; in experiment [5] it was 20%; in experiment [6] it was 0%; in experiment [7], 30%. Further, the plant injury at 1000 g/ha in experiment [2] turned out to be 10%.
As for `N#Cc1cccc(C(F)(F)C(=O)O)c1F` [Compound 1-192, 2-(3-Cyano-2-fluoro-phenyl)-2,2-difluoro-acetic acid], the pest or weed control at 1000 g/ha in experiment [1] (setting [8]) was determined as 80%; in experiment [1] (setting [9]) it was 20%; in experiment [1] (setting [10]), 80%; in experiment [1] (setting [11]), 30%; in experiment [1] (setting [12]), 70%; in experiment [1] (setting [13]) it was 60%. The pest or weed control at 1000 g/ha in experiment [3] is 70%; in experiment [4], 80%; in experiment [5], 70%; in experiment [6] it was 0%; in experiment [7], 50%. Moreover, in experiment [2], the plant injury at 1000 g/ha was 0%.
Take `N#Cc1c(F)ccc(C(F)(F)C(=O)O)c1Cl` [Compound 1-460, 2-(2-Chloro-3-cyano-4-fluoro-phenyl)-2,2-difluoro-acetic acid]: the pest or weed control at 1000 g/ha in experiment [1] (setting [8]) stood at 90%; in experiment [1] (setting [9]) it was 10%; in experiment [1] (setting [10]) it was 90%; in experiment [1] (setting [11]), 20%; in experiment [1] (setting [12]), 60%; in experiment [1] (setting [13]), 40%. Besides, the pest or weed control at 1000 g/ha stood at 90% in experiment [3]; 80% in experiment [4]; 70% in experiment [5]; 0% in experiment [6]; 10% in experiment [7]. In experiment [2], the plant injury at 1000 g/ha stood at 10%.
`N#Cc1c(F)cccc1C(F)(F)C(=O)O` [Compound 1-261, 2-(2-Cyano-3-fluoro-phenyl)-2,2-difluoro-acetic acid]: the pest or weed control at 1000 g/ha in experiment [1] (setting [8]) turned out to be 70%; in experiment [1] (setting [9]), 20%; in experiment [1] (setting [10]), 70%; in experiment [1] (setting [11]), 0%; in experiment [1] (setting [12]) it was 40%; in experiment [1] (setting [13]), 30%. The pest or weed control at 1000 g/ha in experiment [3] was 50%; in experiment [4], 40%; in experiment [5] it was 40%; in experiment [6], 10%; in experiment [7] it was 10%. The plant injury at 1000 g/ha in experiment [2] was found to be 0%.
`COc1cccc(C(F)(F)C(=O)O)c1F` [Compound 1-190, 2,2-Difluoro-2-(2-fluoro-3-methoxy-phenyl)acetic acid]: the pest or weed control at 1000 g/ha in experiment [1] (setting [8]) worked out at 80%; in experiment [1] (setting [9]), 10%; in experiment [1] (setting [10]), 90%; in experiment [1] (setting [11]) it was 40%; in experiment [1] (setting [12]), 60%; in experiment [1] (setting [13]) it was 20%. For the same compound, the pest or weed control at 1000 g/ha in experiment [3] is 80%; in experiment [4], 80%; in experiment [5], 90%; in experiment [6], 0%; in experiment [7], 20%. Moreover, in experiment [2], the plant injury at 1000 g/ha was 0%.

Values taken from US20240251792A1, “WEED CONTROL METHOD” (SYNGENTA CROP PROTECTION AG, priority 2021, published 2024).
